From BigSolDB 2.1

[1] = in tetrachloromethane, 268.15 K
[2] = in tetrachloromethane, 273.15 K
[3] = in tetrachloromethane, 278.15 K
[4] = in tetrachloromethane, 288.15 K
[5] = in tetrachloromethane, 298.15 K
[6] = in tetrachloromethane, 308.15 K
[7] = in tetrachloromethane, 318.15 K

Q: What does the source list for N#Cc1cccnc1?
A: solubility (mole fraction) (in acetone, 268.15 K): 0.247; solubility (mole fraction) (in acetone, 273.15 K): 0.29; solubility (mole fraction) (in acetone, 278.15 K): 0.329; solubility (mole fraction) (in acetone, 288.15 K): 0.438; solubility (mole fraction) (in acetone, 298.15 K): 0.541; solubility (mole fraction) (in acetone, 308.15 K): 0.664; solubility (mole fraction) (in acetone, 318.15 K): 0.833; solubility (mole fraction) (in ethanol, 268.15 K): 0.0429; solubility (mole fraction) (in ethanol, 273.15 K): 0.0593; solubility (mole fraction) (in ethanol, 278.15 K): 0.0903; solubility (mole fraction) (in ethanol, 288.15 K): 0.201; solubility (mole fraction) (in ethanol, 298.15 K): 0.339; solubility (mole fraction) (in ethanol, 308.15 K): 0.491; solubility (mole fraction) (in ethanol, 318.15 K): 0.627; solubility (mole fraction) (in ethyl acetate, 268.15 K): 0.209; solubility (mole fraction) (in ethyl acetate, 273.15 K): 0.247; solubility (mole fraction) (in ethyl acetate, 278.15 K): 0.282; solubility (mole fraction) (in ethyl acetate, 288.15 K): 0.375; solubility (mole fraction) (in ethyl acetate, 298.15 K): 0.478; solubility (mole fraction) (in ethyl acetate, 308.15 K): 0.63; solubility (mole fraction) (in ethyl acetate, 318.15 K): 0.803; solubility (mole fraction) (in isobutanol, 268.15 K): 0.028; solubility (mole fraction) (in isobutanol, 273.15 K): 0.0396; solubility (mole fraction) (in isobutanol, 278.15 K): 0.0702; solubility (mole fraction) (in isobutanol, 288.15 K): 0.17; solubility (mole fraction) (in isobutanol, 298.15 K): 0.3; solubility (mole fraction) (in isobutanol, 308.15 K): 0.435; solubility (mole fraction) (in isobutanol, 318.15 K): 0.6; solubility (mole fraction) (in methanol, 268.15 K): 0.0877; solubility (mole fraction) (in methanol, 273.15 K): 0.111; solubility (mole fraction) (in methanol, 278.15 K): 0.153; solubility (mole fraction) (in methanol, 288.15 K): 0.267; solubility (mole fraction) (in methanol, 298.15 K): 0.404; solubility (mole fraction) (in methanol, 308.15 K): 0.541; solubility (mole fraction) (in methanol, 318.15 K): 0.726; solubility (mole fraction) (in n-butanol, 268.15 K): 0.025; solubility (mole fraction) (in n-butanol, 273.15 K): 0.0393; solubility (mole fraction) (in n-butanol, 278.15 K): 0.0645; solubility (mole fraction) (in n-butanol, 288.15 K): 0.164; solubility (mole fraction) (in n-butanol, 298.15 K): 0.275; solubility (mole fraction) (in n-butanol, 308.15 K): 0.427; solubility (mole fraction) (in n-butanol, 318.15 K): 0.577; solubility (mole fraction) (in n-propanol, 268.15 K): 0.0434; solubility (mole fraction) (in n-propanol, 273.15 K): 0.0658; solubility (mole fraction) (in n-propanol, 278.15 K): 0.0976; solubility (mole fraction) (in n-propanol, 288.15 K): 0.214; solubility (mole fraction) (in n-propanol, 298.15 K): 0.348; solubility (mole fraction) (in n-propanol, 308.15 K): 0.5; solubility (mole fraction) (in n-propanol, 318.15 K): 0.643; solubility (mole fraction) [1]: 0.0098; solubility (mole fraction) [2]: 0.0152; solubility (mole fraction) [3]: 0.024; solubility (mole fraction) [4]: 0.095; solubility (mole fraction) [5]: 0.239; solubility (mole fraction) [6]: 0.393; solubility (mole fraction) [7]: 0.568

Q: For N#Cc1ccncc1, which solubility (mole fraction) (in acetone, 268.15 K) is on record?
A: 0.117

Q: And the solubility (mole fraction) (in acetone, 273.15 K)?
A: 0.134

Q: And the solubility (mole fraction) (in acetone, 278.15 K)?
A: 0.155

Q: And the solubility (mole fraction) (in acetone, 288.15 K)?
A: 0.213

Q: And the solubility (mole fraction) (in acetone, 298.15 K)?
A: 0.275

Q: And the solubility (mole fraction) (in acetone, 308.15 K)?
A: 0.356

Q: What about the solubility (mole fraction) (in acetone, 318.15 K) of the same compound?
A: 0.46

Q: What about the solubility (mole fraction) (in ethanol, 268.15 K) of the same compound?
A: 0.0065

Q: What about the solubility (mole fraction) (in ethanol, 273.15 K) of the same compound?
A: 0.016

Q: What about the solubility (mole fraction) (in ethanol, 278.15 K) of the same compound?
A: 0.0179

Q: And the solubility (mole fraction) (in ethanol, 288.15 K)?
A: 0.0367

Q: What about the solubility (mole fraction) (in ethanol, 298.15 K) of the same compound?
A: 0.0706

Q: What about the solubility (mole fraction) (in ethanol, 308.15 K) of the same compound?
A: 0.136

Q: What about the solubility (mole fraction) (in ethanol, 318.15 K) of the same compound?
A: 0.273

Q: And the solubility (mole fraction) (in ethyl acetate, 268.15 K)?
A: 0.106

Q: And the solubility (mole fraction) (in ethyl acetate, 273.15 K)?
A: 0.121

Q: And the solubility (mole fraction) (in ethyl acetate, 278.15 K)?
A: 0.142

Q: And the solubility (mole fraction) (in ethyl acetate, 288.15 K)?
A: 0.203

Q: And the solubility (mole fraction) (in ethyl acetate, 298.15 K)?
A: 0.261

Q: What about the solubility (mole fraction) (in ethyl acetate, 308.15 K) of the same compound?
A: 0.343

Q: What about the solubility (mole fraction) (in ethyl acetate, 318.15 K) of the same compound?
A: 0.437

Q: And the solubility (mole fraction) (in isobutanol, 268.15 K)?
A: 0.0133

Q: And the solubility (mole fraction) (in isobutanol, 273.15 K)?
A: 0.0176

Q: What about the solubility (mole fraction) (in isobutanol, 278.15 K) of the same compound?
A: 0.0229

Q: And the solubility (mole fraction) (in isobutanol, 288.15 K)?
A: 0.0469

Q: And the solubility (mole fraction) (in isobutanol, 298.15 K)?
A: 0.108

Q: What about the solubility (mole fraction) (in isobutanol, 308.15 K) of the same compound?
A: 0.172

Q: And the solubility (mole fraction) (in isobutanol, 318.15 K)?
A: 0.304

Q: And the solubility (mole fraction) (in methanol, 268.15 K)?
A: 0.0245

Q: What about the solubility (mole fraction) (in methanol, 273.15 K) of the same compound?
A: 0.0302

Q: And the solubility (mole fraction) (in methanol, 278.15 K)?
A: 0.0361

Q: And the solubility (mole fraction) (in methanol, 288.15 K)?
A: 0.062

Q: What about the solubility (mole fraction) (in methanol, 298.15 K) of the same compound?
A: 0.0954

Q: And the solubility (mole fraction) (in methanol, 308.15 K)?
A: 0.173

Q: What about the solubility (mole fraction) (in methanol, 318.15 K) of the same compound?
A: 0.304

Q: And the solubility (mole fraction) (in n-butanol, 268.15 K)?
A: 0.0141

Q: And the solubility (mole fraction) (in n-butanol, 273.15 K)?
A: 0.0149

Q: And the solubility (mole fraction) (in n-butanol, 278.15 K)?
A: 0.0216

Q: What about the solubility (mole fraction) (in n-butanol, 288.15 K) of the same compound?
A: 0.0471

Q: What about the solubility (mole fraction) (in n-butanol, 298.15 K) of the same compound?
A: 0.0898

Q: And the solubility (mole fraction) (in n-butanol, 308.15 K)?
A: 0.151

Q: What about the solubility (mole fraction) (in n-butanol, 318.15 K) of the same compound?
A: 0.284

Q: And the solubility (mole fraction) (in n-propanol, 268.15 K)?
A: 0.0246

Q: And the solubility (mole fraction) (in n-propanol, 273.15 K)?
A: 0.0271

Q: What about the solubility (mole fraction) (in n-propanol, 278.15 K) of the same compound?
A: 0.0396

Q: And the solubility (mole fraction) (in n-propanol, 288.15 K)?
A: 0.07

Q: What about the solubility (mole fraction) (in n-propanol, 298.15 K) of the same compound?
A: 0.129

Q: What about the solubility (mole fraction) (in n-propanol, 308.15 K) of the same compound?
A: 0.19

Q: What about the solubility (mole fraction) (in n-propanol, 318.15 K) of the same compound?
A: 0.298

Q: And the solubility (mole fraction) [1]?
A: 0.0129

Q: What about the solubility (mole fraction) [2] of the same compound?
A: 0.0194

Q: And the solubility (mole fraction) [3]?
A: 0.0292

Q: What about the solubility (mole fraction) [4] of the same compound?
A: 0.0396

Q: What about the solubility (mole fraction) [5] of the same compound?
A: 0.0839

Q: And the solubility (mole fraction) [6]?
A: 0.151

Q: And the solubility (mole fraction) [7]?
A: 0.287
